{"source": "patent US8192962B2", "about": "“Processes for detecting toxic substances” (Daikin Industries, Ltd., priority 2001, dated 2012)", "tested_on": "Genes belonging to other category", "assay": "DNA chip mRNA expression in yeast, genes belonging to other category (Table 9)", "type": "cell-based, Saccharomyces cerevisiae S288C", "description": "Yeast (Saccharomyces cerevisiae S288C (α SUC2mal mel gap2 CUP1)) were incubated at 25° C. on YPD medium (yeast extract 1%, polypepton 2%, glucose 2%). One of toxic chemical substances was added to the cells at logarithmic growth phase, and the cells were further incubated for two hours. Cells were cultured without any chemical substance in the same condition, and were used as control. Concentrations of the chemical substances were defined to inhibit the growth of the yeast but not lead to death.\nAfter completion of the incubation, the culture was centrifuged to collect the cells. To the cells, sodium acetate buffer (50 mM sodium acetate, 10 mM EDTA, 1% SDS) was added, and the mixture was shaken at 65° C. for five minutes, followed by returning to room temperature, and obtaining the supernatant, of which the procedures were repeated two times. To the supernatant, ½ amount of a solution of phenol/chloroform was added, and the mixture was centrifuged to give a supernatant, which was added with an equal amount of chloroform, and the mixture was centrifuged to give a supernatant. To the supernatant, an equal amount of isopropanol containing 0.3 M sodium acetate was added, and the mixture was allowed to stand at room temperature for 30 minutes, after which the mixture was centrifuged to give a sediment of the whole RNAs. Seventy % ethanol was added to the sediment, and the mixture was again centrifuged to give a sediment, which was then dried and dissolved in water. mRNA was isolated from the whole RNAs as followings. In view of the fact that a poly A chain is attached to the 3′ terminus of mRNA, a polynucleotide having a poly T structure which was immobilized on the surface of latex beads was used to trap the mRNA, and then the mRNA was washed and eluted with spine column (Oligotex-dT30<Super>mRNA Purification Kit, Takara). Reverse transcription of the mRNA was conducted with a reverse transcriptase (Super Script II Reverse Transcriptase; catalogue No. 18064-014, GibcoBRL) using fluorescence-labeled nucleotides to give cDNAs that were introduced with Cy3-dUTP or Cy5-dUTP during the reverse transcription.\nThe labeled cDNAs were dissolved in TE buffer (10mM Tris-HCl/1 mM EDTA, pH8.0), and the solution was dropped on the DNA chip containing the whole genes of yeast (DNA Chip Research Inc. Japan) so that the cDNAs were hybridized on the DNA chip at 65° C. for over 12 hours. The fluoresces intensity of the DNA chip was read with a scanner, and the ratio relative to the fluorescence intensity resulting from the absence of chemical substance was estimated as the following, which is shown in Tables 1 to 9: […]"}
{"substance": "manganese ethylenebis(dithiocarbamate) [(8)]", "values": [{"measurement": "The level of expressed mRNA in the presence of chemical substance/The level of expressed mRNA in the absence of chemical substance", "setting": "yeast gene YKL008C", "result": 1.2}, {"measurement": "The level of expressed mRNA in the presence of chemical substance/The level of expressed mRNA in the absence of chemical substance", "setting": "yeast gene YKL013C", "result": 0.9}, {"measurement": "The level of expressed mRNA in the presence of chemical substance/The level of expressed mRNA in the absence of chemical substance", "setting": "yeast gene YKL039W", "result": 0.8}, {"measurement": "The level of expressed mRNA in the presence of chemical substance/The level of expressed mRNA in the absence of chemical substance", "setting": "yeast gene YKL096W", "result": 0.5}, {"measurement": "The level of expressed mRNA in the presence of chemical substance/The level of expressed mRNA in the absence of chemical substance", "setting": "yeast gene YKL165C", "result": 1.5}, {"measurement": "The level of expressed mRNA in the presence of chemical substance/The level of expressed mRNA in the absence of chemical substance", "setting": "yeast gene YKL193C", "result": 1.4}, {"measurement": "The level of expressed mRNA in the presence of chemical substance/The level of expressed mRNA in the absence of chemical substance", "setting": "yeast gene YLR120C", "result": 0.9}, {"measurement": "The level of expressed mRNA in the presence of chemical substance/The level of expressed mRNA in the absence of chemical substance", "setting": "yeast gene YLR136C", "result": 1.1}, {"measurement": "The level of expressed mRNA in the presence of chemical substance/The level of expressed mRNA in the absence of chemical substance", "setting": "yeast gene YLR178C", "result": 0.9}, {"measurement": "The level of expressed mRNA in the presence of chemical substance/The level of expressed mRNA in the absence of chemical substance", "setting": "yeast gene YLR250W", "result": 1.3}, {"measurement": "The level of expressed mRNA in the presence of chemical substance/The level of expressed mRNA in the absence of chemical substance", "setting": "yeast gene YLR327C", "result": 2.2}, {"measurement": "The level of expressed mRNA in the presence of chemical substance/The level of expressed mRNA in the absence of chemical substance", "setting": "yeast gene YLR356W", "result": 0.7}, {"measurement": "The level of expressed mRNA in the presence of chemical substance/The level of expressed mRNA in the absence of chemical substance", "setting": "yeast gene YLR362W", "result": 1.4}, {"measurement": "The level of expressed mRNA in the presence of chemical substance/The level of expressed mRNA in the absence of chemical substance", "setting": "yeast gene YLR391W", "result": 0.7}, {"measurement": "The level of expressed mRNA in the presence of chemical substance/The level of expressed mRNA in the absence of chemical substance", "setting": "yeast gene YLR429W", "result": 1.0}, {"measurement": "The level of expressed mRNA in the presence of chemical substance/The level of expressed mRNA in the absence of chemical substance", "setting": "yeast gene YMR004W", "result": 1.0}, {"measurement": "The level of expressed mRNA in the presence of chemical substance/The level of expressed mRNA in the absence of chemical substance", "setting": "yeast gene YMR094W", "result": 1.0}, {"measurement": "The level of expressed mRNA in the presence of chemical substance/The level of expressed mRNA in the absence of chemical substance", "setting": "yeast gene YMR104C", "result": 0.9}, {"measurement": "The level of expressed mRNA in the presence of chemical substance/The level of expressed mRNA in the absence of chemical substance", "setting": "yeast gene YMR219W", "result": 1.1}, {"measurement": "The level of expressed mRNA in the presence of chemical substance/The level of expressed mRNA in the absence of chemical substance", "setting": "yeast gene YMR226C", "result": 1.6}, {"measurement": "The level of expressed mRNA in the presence of chemical substance/The level of expressed mRNA in the absence of chemical substance", "setting": "yeast gene YMR275C", "result": 0.8}, {"measurement": "The level of expressed mRNA in the presence of chemical substance/The level of expressed mRNA in the absence of chemical substance", "setting": "yeast gene YMR276W", "result": 0.8}, {"measurement": "The level of expressed mRNA in the presence of chemical substance/The level of expressed mRNA in the absence of chemical substance", "setting": "yeast gene YMR314W", "result": 1.2}, {"measurement": "The level of expressed mRNA in the presence of chemical substance/The level of expressed mRNA in the absence of chemical substance", "setting": "yeast gene YNL006W", "result": 1.1}, {"measurement": "The level of expressed mRNA in the presence of chemical substance/The level of expressed mRNA in the absence of chemical substance", "setting": "yeast gene YNL007C", "result": 0.8}, {"measurement": "The level of expressed mRNA in the presence of chemical substance/The level of expressed mRNA in the absence of chemical substance", "setting": "yeast gene YNL093W", "result": 0.8}, {"measurement": "The level of expressed mRNA in the presence of chemical substance/The level of expressed mRNA in the absence of chemical substance", "setting": "yeast gene YNL333W", "result": 2.1}, {"measurement": "The level of expressed mRNA in the presence of chemical substance/The level of expressed mRNA in the absence of chemical substance", "setting": "yeast gene YNR010W", "result": 1.1}, {"measurement": "The level of expressed mRNA in the presence of chemical substance/The level of expressed mRNA in the absence of chemical substance", "setting": "yeast gene YNR069C", "result": 1.4}, {"measurement": "The level of expressed mRNA in the presence of chemical substance/The level of expressed mRNA in the absence of chemical substance", "setting": "yeast gene YOL013C", "result": 1.0}, {"measurement": "The level of expressed mRNA in the presence of chemical substance/The level of expressed mRNA in the absence of chemical substance", "setting": "yeast gene YOL164W", "result": 1.0}, {"measurement": "The level of expressed mRNA in the presence of chemical substance/The level of expressed mRNA in the absence of chemical substance", "setting": "yeast gene YOR036W", "result": 1.4}, {"measurement": "The level of expressed mRNA in the presence of chemical substance/The level of expressed mRNA in the absence of chemical substance", "setting": "yeast gene YOR117W", "result": 1.0}, {"measurement": "The level of expressed mRNA in the presence of chemical substance/The level of expressed mRNA in the absence of chemical substance", "setting": "yeast gene YOR124C", "result": 1.3}, {"measurement": "The level of expressed mRNA in the presence of chemical substance/The level of expressed mRNA in the absence of chemical substance", "setting": "yeast gene YOR132W", "result": 1.2}, {"measurement": "The level of expressed mRNA in the presence of chemical substance/The level of expressed mRNA in the absence of chemical substance", "setting": "yeast gene YOR157C", "result": 1.2}, {"measurement": "The level of expressed mRNA in the presence of chemical substance/The level of expressed mRNA in the absence of chemical substance", "setting": "yeast gene YOR181W", "result": 0.7}, {"measurement": "The level of expressed mRNA in the presence of chemical substance/The level of expressed mRNA in the absence of chemical substance", "setting": "yeast gene YOR185C", "result": 1.4}, {"measurement": "The level of expressed mRNA in the presence of chemical substance/The level of expressed mRNA in the absence of chemical substance", "setting": "yeast gene YOR198C", "result": 1.3}, {"measurement": "The level of expressed mRNA in the presence of chemical substance/The level of expressed mRNA in the absence of chemical substance", "setting": "yeast gene YOR259C", "result": 1.1}, {"measurement": "The level of expressed mRNA in the presence of chemical substance/The level of expressed mRNA in the absence of chemical substance", "setting": "yeast gene YOR261C", "result": 2.6}, {"measurement": "The level of expressed mRNA in the presence of chemical substance/The level of expressed mRNA in the absence of chemical substance", "setting": "yeast gene YOR288C", "result": 1.9}, {"measurement": "The level of expressed mRNA in the presence of chemical substance/The level of expressed mRNA in the absence of chemical substance", "setting": "yeast gene YOR355W", "result": 0.8}, {"measurement": "The level of expressed mRNA in the presence of chemical substance/The level of expressed mRNA in the absence of chemical substance", "setting": "yeast gene YOR383C", "result": 1.0}, {"measurement": "The level of expressed mRNA in the presence of chemical substance/The level of expressed mRNA in the absence of chemical substance", "setting": "yeast gene YPL089C", "result": 0.8}, {"measurement": "The level of expressed mRNA in the presence of chemical substance/The level of expressed mRNA in the absence of chemical substance", "setting": "yeast gene YPL109C", "result": 1.1}, {"measurement": "The level of expressed mRNA in the presence of chemical substance/The level of expressed mRNA in the absence of chemical substance", "setting": "yeast gene YPL149W", "result": 1.1}, {"measurement": "The level of expressed mRNA in the presence of chemical substance/The level of expressed mRNA in the absence of chemical substance", "setting": "yeast gene YPL154C", "result": 0.8}, {"measurement": "The level of expressed mRNA in the presence of chemical substance/The level of expressed mRNA in the absence of chemical substance", "setting": "yeast gene YPR103W", "result": 1.0}, {"measurement": "The level of expressed mRNA in the presence of chemical substance/The level of expressed mRNA in the absence of chemical substance", "setting": "yeast gene YPR108W", "result": 1.6}]}
